Article PMC11859928, “Design, Synthesis, and Antiproliferative Activity of Novel Indole/1,2,4-Triazole Hybrids as Tubulin Polymerization Inhibitors” (Pharmaceuticals, 2025)
Like-named read-outs stand apart in the source and are kept apart here.

Experiments:
Leukemia subpanel = assay: NCI five-dose assay, subpanel mean; assay type: cell-based, human
CAKI-1 [1] = assay: NCI five-dose assay; assay type: cell-based, human; conditions: CAKI-1, Renal cancer
M14 = assay: NCI five-dose assay; assay type: cell-based, human; conditions: M14, Melanoma
Colon cancer subpanel = assay: NCI five-dose assay, subpanel mean; assay type: cell-based, human
OVCAR-5 = assay: NCI five-dose assay; assay type: cell-based, human; conditions: OVCAR-5, Ovarian cancer
A498 = assay: NCI one-dose assay; assay type: cell-based, human
[2] = test system: panel of 60 human tumor cell lines; assay: NCI five-dose assay, full panel; assay type: cell-based
T-47D = assay: NCI five-dose assay; assay type: cell-based, human; conditions: Breast cancer
NCI 60 cell lines = assay: NCI one-dose assay, full panel; assay type: cell-based, human; conditions: Homo sapiens, 60 cell, read-out: cell growth inhibition percentage, range
Method: The National Cancer Institute (NCI), Bethesda, USA, selected the final compounds 6a–j and 7a–j for in vitro anticancer screening. An initial in vitro single-dose anticancer experiment was performed with the entire NCI 60 cell lines derived from nine tumor subpanel cancer cell lines. The results for each compound were illustrated as a mean graph showing the percentage growth of treated cells compared to untreated control cells (see Supplementary Materials).
The NCI anticancer screening process has been thoroughly detailed. The Drug Evaluation Branch of the National Cancer Institute in Bethesda, […], USA, established the procedure and conducted the anticancer assay on 60 human tumor cell lines from nine neoplastic cancers.

NCI-H226 = assay: NCI one-dose assay; assay type: cell-based; conditions: Homo sapiens, NCI-H226, Non-small cell lung cancer, read-out: Cell growth inhibition %
MDA-MB-435 = assay: NCI one-dose assay; assay type: cell-based; conditions: Homo sapiens, MDA-MB-435, Melanoma, read-out: Cell growth inhibition %
LOX IMVI = assay: NCI one-dose assay; assay type: cell-based; conditions: Homo sapiens, Melanoma, read-out: Cell growth inhibition %
HCT-116 = assay: NCI one-dose assay; assay type: cell-based; conditions: Homo sapiens, HCT-116, Colon cancer, read-out: Cell growth inhibition %
SNB-75 = assay: NCI one-dose assay; assay type: cell-based; conditions: Homo sapiens, SNB-75, CNS cancer, read-out: Cell growth inhibition %
COLO 205 = assay: NCI one-dose assay; assay type: cell-based; conditions: Homo sapiens, COLO 205, Colon cancer, read-out: Cell growth inhibition %
HOP-62 = assay: NCI one-dose assay; assay type: cell-based; conditions: Homo sapiens, HOP-62, Non-small cell lung cancer, read-out: Cell growth inhibition %
HCT-15 = assay: NCI one-dose assay; assay type: cell-based; conditions: Homo sapiens, HCT-15, Colon cancer, read-out: Cell growth inhibition %
ACHN = assay: NCI one-dose assay; assay type: cell-based; conditions: Homo sapiens, Renal cancer, read-out: Cell growth inhibition %
KM12 = assay: NCI one-dose assay; assay type: cell-based; conditions: Homo sapiens, KM12, Colon cancer, read-out: Cell growth inhibition %
CAKI-1 [3] = assay: NCI one-dose assay; assay type: cell-based; conditions: Homo sapiens, CAKI-1, Renal cancer, read-out: Cell growth inhibition %
PC-3 = assay: NCI one-dose assay; assay type: cell-based; conditions: Homo sapiens, PC-3, Prostate cancer, read-out: Cell growth inhibition %
SK-MEL-2 = assay: NCI one-dose assay; assay type: cell-based; conditions: Homo sapiens, SK-MEL-2, Melanoma, read-out: Cell growth inhibition %
RPMI-8226 = assay: NCI one-dose assay; assay type: cell-based; conditions: Homo sapiens, RPMI-8226, Leukemia, read-out: Cell growth inhibition %
NCI-H322M = assay: NCI one-dose assay; assay type: cell-based; conditions: Homo sapiens, Non-small cell lung cancer, read-out: Cell growth inhibition %
CCRF-CEM = assay: NCI one-dose assay; assay type: cell-based; conditions: Homo sapiens, Leukemia, read-out: Cell growth inhibition %
MOLT-4 = assay: NCI one-dose assay; assay type: cell-based; conditions: Homo sapiens, MOLT-4, Leukemia, read-out: Cell growth inhibition %
MCF7 = assay: NCI one-dose assay; assay type: cell-based; conditions: Homo sapiens, MCF7, Breast cancer, read-out: Cell growth inhibition %
SF-295 = assay: NCI one-dose assay; assay type: cell-based; conditions: Homo sapiens, SF-295, CNS cancer, read-out: Cell growth inhibition %
MDA-MB-468 = assay: NCI one-dose assay; assay type: cell-based; conditions: Homo sapiens, MDA-MB-468, Breast cancer, read-out: Cell growth inhibition %
UACC-62 = assay: NCI one-dose assay; assay type: cell-based; conditions: Homo sapiens, UACC-62, Melanoma, read-out: Cell growth inhibition %
BT-549 = assay: NCI one-dose assay; assay type: cell-based; conditions: Homo sapiens, BT-549, Breast cancer, read-out: Cell growth inhibition %
[4] = Homo sapiens, read-out: GI50 Conc. per Cell Lines

Structure (SMILES): O/N=C(\CSc1nnc(-c2c[nH]c3ccccc23)n1-c1ccccc1)c1ccc(Br)cc1 [Compound 7i, (Z)-2-((5-(1H-Indol-3-yl)-4-phenyl-4H-1,2,4-triazol-3-yl)thio)-1-(4-bromophenyl) Ethanone Oxime]
- GI50 (Leukemia subpanel; Homo sapiens, average sensitivity of all cell lines of the Leukemia subpanel, read-out: GI50 Subpanel MID b): 2.29 µM
- GI50 Selectivity Ratio (MID a/MID b) (Leukemia subpanel; Leukemia subpanel): 1.22
- TGI Conc. per Cell Lines (CAKI-1 [1]): 8.10 µM
- LC50 (CAKI-1 [1]; Homo sapiens, 48 h): 38 µM
- GI50 (CAKI-1 [1]; [4]): 2.63 µM
- CC50 (M14; Homo sapiens, 48 h, read-out: LC50 (the source's name)): > 100 µM
- GI50 (M14; [4]): 3.4 µM
- TGI Conc. per Cell Lines (M14): 17.60 µM
- GI50 Selectivity Ratio (MID a/MID b) (Colon cancer subpanel; Colon cancer subpanel): 0.88
- GI50 (Colon cancer subpanel; Homo sapiens, average sensitivity of all cell lines of the Colon cancer subpanel, read-out: GI50 Subpanel MID b): 3.19 µM
- LC50 (OVCAR-5; Homo sapiens, 48 h): 1.59 µM
- GI50 (OVCAR-5; [4]): 2.18 µM
- TGI Conc. per Cell Lines (OVCAR-5): 5.21 µM
- Cell growth inhibition % (A498; A498, Renal cancer, 10 µM): 37.85%
- inhibition at 10 µM (A498; Homo sapiens, A498, A498, Renal cancer, read-out: Cell growth inhibition %): 38%
- GI50 ([2]; average sensitivity of all cell lines, read-out: GI50 MID a): 2.8 µM
- GI50 ([2]; most of the tested cell lines across nine subpanels, read-out: GI50 values, range across nine subpanels): 2.1 to 3.23 µM
- TGI Conc. per Cell Lines (T-47D): 17.20 µM
- LC50 (concentration killing 50% of cells) (T-47D; Homo sapiens, T47D, 48 h): > 100 µM
- GI50 (T-47D; Homo sapiens, T47D, read-out: GI50 Conc. per Cell Lines): 3.51 µM
- inhibition at 10 µM (NCI 60 cell lines; eight cell lines): 86 to 99%
- inhibition at 10 µM (NCI 60 cell lines; forty-nine cell lines with complete cell death): 106 to 200%
- inhibition at 10 µM (NCI-H226): 93.7%
- inhibition at 10 µM (MDA-MB-435): 200%
- inhibition at 10 µM (LOX IMVI): 187%
- inhibition at 10 µM (HCT-116): 136%
- inhibition at 10 µM (SNB-75): 120%
- inhibition at 10 µM (COLO 205): 141%
- inhibition at 10 µM (HOP-62): 155%
- inhibition at 10 µM (HCT-15): 193%
- inhibition at 10 µM (ACHN): 184%
- inhibition at 10 µM (KM12): 97.9%
- inhibition at 10 µM (CAKI-1 [3]): 194%
- inhibition at 10 µM (PC-3): 164%
- inhibition at 10 µM (SK-MEL-2): 166%
- inhibition at 10 µM (RPMI-8226): 113%
- inhibition at 10 µM (NCI-H322M): 173%
- inhibition at 10 µM (CCRF-CEM): 106%
- inhibition at 10 µM (MOLT-4): 119%
- inhibition at 10 µM (MCF7): 143%
- inhibition at 10 µM (SF-295): 115%
- inhibition at 10 µM (MDA-MB-468): 195%
- inhibition at 10 µM (UACC-62): 190%
- inhibition at 10 µM (BT-549): 173%
